Measured values taken from patent publication US12378279B2, “Nicotinamide riboside hydrogen malate crystal, and its preparation method and application” (priority 2024, dated 2025).

Assays:
[1] = Stability comparison: HPLC purity of samples in covered, sealed glass dishes in a constant-temperature-humidity chamber; details: 25° C., relative humidity 40%; for Decomposition rate over 6 days: (initial sample purity−sample purity)/initial sample purity×100%; for Purity: sealed glass dish
Method: The nicotinamide riboside hydrogen malate crystal obtained herein and the commercially-available nicotinamide riboside hydrogen malate crystal samples (A and B) were each divided into seven portions and separately placed into seven glass sample dishes, with 1 g of sample in each dish. The dishes were covered and sealed. All the samples were stored in a constant-temperature-humidity chamber at 25° C. and a relative humidity of 40%. The purity of the samples was tested daily. The decomposition rate was calculated using the following formula: decomposition rate=(initial sample purity−sample purity)/initial sample purity×100%.
Product purity analysis was performed through the following steps. One packet of the sample was dissolved in a 5 mL or 10 mL volumetric flask to prepare a 5 mL or 10 mL sample solution. Then, the purity of the sample was determined using high performance liquid chromatography (HPLC).
The high performance liquid chromatography (HPLC) method parameters were as follows: isocratic elution with 5% water (0.1% formic acid) and 95% methanol (0.1% formic acid) as the mobile phase, a wavelength of 254 nm, a temperature of 23.0° C. with 54% relative humidity, samples dissolved in methanol, an ODS-2 column (4.6×250 mm, […]) with pressure maintained at 12-13 MPa, a flow rate of 1.0 mL/min, an injection volume of […] and a run time greater than or equal to 15 min.

[2] = at 112-200° C., heating rate 10° C./min, nitrogen
Method: Thermogravimetric analysis (TGA) was performed using a TGA55 instrument from TA Instruments, USA, with a temperature range of 14.8-300° C., a heating rate of 10° C./min and a nitrogen flow rate of 40 mL/min.

[3] = Color change and hygroscopicity of products exposed to air (Karl Fischer moisture); type: physicochemical; details: RH 40%
Method: The nicotinamide riboside hydrogen malate crystal products obtained from the above Examples and Comparative Examples were respectively exposed to air (air humidity and temperature were controlled). […] Moisture (Karl Fischer) determination method was performed using an MC-2000 automatic micro-moisture analyzer from Mince Instruments (Xiamen) Co., Ltd., and a karl fischer reagent from Nanjing Chemical Reagent Co., Ltd.

[4] = Stability comparison: HPLC purity of samples sealed in polyethylene bags in a constant-temperature-humidity chamber; type: physicochemical; details: 25° C., RH 40%, sealed PE bag; for Decomposition rate on day 6: (initial sample purity−sample purity)/initial sample purity×100%
Method: The nicotinamide riboside hydrogen malate crystal obtained from the above Examples and Comparative Examples products was sealed in polyethylene (PE) bags, with 1 gram per bag. […] Samples were tested at regular intervals. Sample solution was prepared through the following steps. […] Then, the sample solution was filtered through a membrane, and the sample purity was determined using high performance liquid chromatography (HPLC).

SMILES: NC(=O)c1ccc[n+]([C@@H]2O[C@H](CO)[C@@H](O)[C@H]2O)c1.O=C(O)CC(O)C(=O)[O-] [Commercially-available product A, nicotinamide riboside hydrogen malate]
- Decomposition rate over 6 days [1]: 8.37%
- Purity ([1]; day 0): 99.900%
- Purity ([1]; day 1): 98.355%
- Purity ([1]; day 2): 96.843%
- Purity ([1]; day 3): 95.752%
- Purity ([1]; day 4): 94.185%
- Purity ([1]; day 5): 93.250%
- Purity ([1]; day 6): 91.538%

SMILES: NC(=O)c1ccc[n+]([C@@H]2O[C@H](CO)[C@@H](O)[C@H]2O)c1.O=C(O)CC(O)C(=O)[O-] [Commercially-available product B, nicotinamide riboside hydrogen malate]
- Decomposition rate over 6 days [1]: 4.77%
- Purity ([1]; day 0): 99.750%
- Purity ([1]; day 1): 98.843%
- Purity ([1]; day 2): 98.310%
- Purity ([1]; day 3): 97.982%
- Purity ([1]; day 4): 96.530%
- Purity ([1]; day 5): 95.020%
- Purity ([1]; day 6): 94.989%

SMILES: NC(=O)c1ccc[n+]([C@@H]2O[C@H](CO)[C@@H](O)[C@H]2O)c1.O=C(O)CC(O)C(=O)[O-] [Example 1, nicotinamide riboside hydrogen malate]
- Stability compared to the commercially-available products ([1]; 6 days): better stability
- Decomposition rate over 6 days ([1]; listed as Product of Example 1): 0.759%
- Purity ([1]; day 0, listed as Product of Example 1): 99.576%
- Purity ([1]; day 1, listed as Product of Example 1): 99.553%
- Purity ([1]; day 2, listed as Product of Example 1): 99.494%
- Purity ([1]; day 3, listed as Product of Example 1): 99.510%
- Purity ([1]; day 4, listed as Product of Example 1): 99.518%
- Purity ([1]; day 5, listed as Product of Example 1): 99.499%
- Purity ([1]; day 6, listed as Product of Example 1): 98.820%
- Weight loss (TGA) [2]: 1-33%
- Product moisture ([3]; Day 0, 25° C., listed as EXAMPLE 1): 0.30%
- Product moisture ([3]; Day 6, 25° C., listed as EXAMPLE 1): 2%
- Purity on day 6 ([4]; listed as EXAMPLE 1): 99.65%
- Initial purity ([4]; listed as EXAMPLE 1): 99.67%
- Decomposition rate on day 6 ([4]; listed as EXAMPLE 1): 0.72%

SMILES: NC(=O)c1ccc[n+]([C@@H]2O[C@H](CO)[C@@H](O)[C@H]2O)c1.O=C(O)CC(O)C(=O)[O-] [Example 2, nicotinamide riboside hydrogen malate]
- Product moisture ([3]; Day 0, 25° C., listed as EXAMPLE 2): 0.28%
- Product moisture ([3]; Day 6, 25° C., listed as EXAMPLE 2): 3.1%
- Purity on day 6 ([4]; listed as EXAMPLE 2): 98.97%
- Initial purity ([4]; listed as EXAMPLE 2): 99.72%
- Decomposition rate on day 6 ([4]; listed as EXAMPLE 2): 0.75%

SMILES: NC(=O)c1ccc[n+]([C@@H]2O[C@H](CO)[C@@H](O)[C@H]2O)c1.O=C(O)CC(O)C(=O)[O-] [Example 3, nicotinamide riboside hydrogen malate]
- Product appearance ([3]; Day 0, 25° C.): White
- Product moisture ([3]; Day 0, 25° C., listed as EXAMPLE 3): 0.30%
- Product appearance ([3]; Day 6, 25° C.): White
- Product moisture ([3]; Day 6, 25° C., listed as EXAMPLE 3): 2.4%
- Purity on day 6 ([4]; listed as EXAMPLE 3): 98.95%
- Initial purity ([4]; listed as EXAMPLE 3): 99.69%
- Decomposition rate on day 6 ([4]; listed as EXAMPLE 3): 0.74%

SMILES: NC(=O)c1ccc[n+]([C@@H]2O[C@H](CO)[C@@H](O)[C@H]2O)c1.O=C(O)CC(O)C(=O)[O-] [Example 4, nicotinamide riboside hydrogen malate]
- Product moisture ([3]; Day 0, 25° C., listed as EXAMPLE 4): 0.22%
- Product moisture ([3]; Day 6, 25° C., listed as EXAMPLE 4): 1.8%
- Purity on day 6 ([4]; listed as EXAMPLE 4): 98.79%
- Initial purity ([4]; listed as EXAMPLE 4): 99.51%
- Decomposition rate on day 6 ([4]; listed as EXAMPLE 4): 0.72%

SMILES: NC(=O)c1ccc[n+]([C@@H]2O[C@H](CO)[C@@H](O)[C@H]2O)c1.O=C(O)CC(O)C(=O)[O-] [Example 5, nicotinamide riboside hydrogen malate]
- Product moisture ([3]; Day 0, 25° C., listed as EXAMPLE 5): 0.31%
- Product moisture ([3]; Day 6, 25° C., listed as EXAMPLE 5): 2.9%
- Purity on day 6 ([4]; listed as EXAMPLE 5): 99.15%
- Initial purity ([4]; listed as EXAMPLE 5): 99.78%
- Decomposition rate on day 6 ([4]; listed as EXAMPLE 5): 0.63%

SMILES: NC(=O)c1ccc[n+]([C@@H]2O[C@H](CO)[C@@H](O)[C@H]2O)c1.O=C(O)CC(O)C(=O)[O-] [Example 6, nicotinamide riboside hydrogen malate]
- Product moisture ([3]; Day 0, 25° C., listed as EXAMPLE 6): 0.29%
- Product moisture ([3]; Day 6, 25° C., listed as EXAMPLE 6): 3.2%
- Purity on day 6 ([4]; listed as EXAMPLE 6): 99.11%
- Initial purity ([4]; listed as EXAMPLE 6): 99.81%
- Decomposition rate on day 6 ([4]; listed as EXAMPLE 6): 0.70%
